What was measured:
[1] = test system: 3T3-L1 preadipocytes; experiment: Adipogenic differentiation of 3T3-L1 preadipocytes (Oil red O, triglyceride content); assay type: cell-based, mouse
Experimental: (§1) 3T3-L1 preadipocytes were grown to confluency in DMEM containing 10% CS. At 2 days post-confluency, the cells were stimulated with differentiation medium (DMEM containing 10% FBS, 10 μg/mL insulin, 1 μM dexamethasone, and 0.5 mM IBMX) for 48 h. Then, the cells were exposed in post-differentiation-maintaining medium (DMEM containing 10% FBS and 10 μg/mL insulin) for a further 48 h, which was replaced with expansion medium (DMEM containing 10% FBS) every 2 days after then. Compounds were added to the post-differentiation and expansion medium. At day 4, the cells were harvested for RNA preparation. At Day 8, the cells were fixed with 10% formaldehyde and stained with Oil red O solution. After washing with water, photos were taken. Solubilized dye was quantified at 550 nm. In addition, total triglyceride of the cells was measured by a total TG measurement kit (Applygene, China). Experiments were performed at least three times.

[2] = test system: PPARγ target genes in differentiating 3T3-L1 cells; experiment: Expression of adipogenesis-related and PPARγ-responsive genes in differentiating 3T3-L1 adipocytes (qPCR); assay type: cell-based, mouse
Experimental: as §1
(§2) Total RNA was extracted using TRIzol reagent (Invitrogen). First-strand cDNA was synthesized from the total RNA using a reverse transcriptional kit (TransGen). Quantitative PCR with SYBR Green (Roche Diagnostics, Lewes, UK) was performed on a Stratagene MX3000P real-time PCR system (Agilent). Melting curves were obtained, and the specificity of PCR products was checked on agarose gels. Relative mRNA expression was determined by the ΔΔCt method and normalized to GAPDH mRNA levels.

[3] = test system: diabetic KKAy mice; experiment: Diabetic KKAy mice, 21 days treatment (fasting blood glucose, OGTT, ITT, body weight); conditions: after 21 days, F12016 75 mg/kg, rosiglitazone 5 mg/kg
Experimental: Fasting blood glucose was measured with Onetoch Ultra Teststrip (Johnson & Johnson) at day 0, 3, 7, 14, 21, and body weight were monitored during these days.
After 14 days of treatment, oral glucose tolerance test (OGTT) was performed. Mice were fasted for 6 h with free access to water. 2 g/kg of glucose was given by gavage and blood glucose was measured at 0, 30, 60, 90, and 120 min.
After 21 days of feeding, insulin tolerance test (ITT) was carried out. Mice were fasted for 4 h before being injected 1 U/kg of recombinant human insulin (Novo Nordisk) subcutaneously, and blood glucose was measured at 0, 40, 90, and 120 min after insulin injection.

[4] = test system: osteoblast marker genes in MC3T3-E1 cells; set-up: method as in PMID 21892191; conditions: rosiglitazone 10 μM; cited from earlier work
[5] = test system: osteoblast marker genes in MC3T3-E1 cells; experiment: Expression of osteoblast marker genes in MC3T3-E1 cells (qPCR); assay type: cell-based
Experimental: (§3) MC3T3-E1 cells were cultured in α-MEM to confluency in 24-well plates and then cultured in differentiation medium (α-MEM supplemented with 200 μM ascorbic acid and 10 mM β-glycerophosphate) for 7, 14, and 21 days, which was replaced every 3 days. The cells were treated with DMSO, rosiglitazone, or F12016 at the start of differentiation. At day 8, 15 and 22, total RNA was isolated, and real-time PCR was performed as described below.
as §2

[6] = test system: MC3T3-E1 preosteoblasts; experiment: Osteoblastic differentiation of MC3T3-E1 cells (Alizarin red S, Alp activity); assay type: cell-based; conditions: F12016 1, 10, 30 μM
Experimental: as §3
Mature osteoblasts were stained with Alizarin red S and Alp activity were measured at day 22. In brief, cells were fixed with 75% ethanol and stained with 40 mM Alizarin red S solution (pH 4.1–4.3) for 10 min. For Alp assay, the cells were harvested and sonicated on ice with two 30s-pulses. Supernatant of lysate was incubated with isopyknic 1.0 mg/ml pNPP (Sigma–aldrich) solution (1 M diethanolamine buffer, 0.5 mM magnesium chloride) for 30 min at 37°C. The reaction was measured at 405 nm. Relative ALP activity was normalized to the protein concentration.

[7] = test system: PPARγ LBD mutants; assay type: cell-based, human; conditions: compared with wild-type PPARγ LBD
Experimental: All chemicals were purchased from Sigma-Aldrich (St. Louis, MO, USA). All medium and serum were obtained from Gibco (Invitrogen). […] Mutations in pBIND-PPARγ-LBD were created by site-directed mutagenesis using the Fast Mutagenesis System (TransGen Biotech, Beijing, China).
The determination of nuclear receptor activation was performed as previously. Briefly, HEK293T cells were transfected with GAL4-pGL4-luc reporter plasmid and pBIND-PPARγ-LBD expression plasmid using Lipofectamine 2000 (Invitrogen) for 6 h before treatment with compounds for 20–24 h. Activity was determined by the Luciferase Assay System (Promega).

| Structure (SMILES) | effect of co-incubation on rosiglitazone-induced adipogenesis ([1]; GW9662 20 μM plus RGZ 10 μM) | mRNA levels of 11β-HSD1 [2] | expression of fatty acid synthase (Fasn) ([2]; both compounds to a similar extent) | blood glucose after insulin injection (ITT) ([3]; insulin 1 IU/kg) | average body weight ([3]; vs vehicle) | intracellular triglyceride (TG) content ([1]; 6 days of stimulation) | lipid accumulation / intracellular lipid droplets (Oil red O staining) ([1]; RGZ 0.1, 1, 10 μM, F12016 1, 10, 30 μM) | expression of RANKL in differentiated MC3T3-E1 cells [4] | expression of Alp and Col1 ([5]; 7 days) | expression of RANKL ([5]; 7 days, rosiglitazone 1 μM, compared with control) | expression of Ibsp and Bglap ([5]; Ibsp 14 days, Bglap 21 days) | alkaline phosphatase (Alp) activity [6] | mineralization (Alizarin Red S) [6] | activation of S289A, H323A, H449A and Y473A mutants [7] |
| --- | --- | --- | --- | --- | --- | --- | --- | --- | --- | --- | --- | --- | --- | --- |
| O=C(Nc1ccccc1)c1cc([N+](=O)[O-])ccc1Cl [GW9662, reference compound] | weakened |  |  |  |  |  |  |  |  |  |  |  |  |  |
| CN(CCOc1ccc(CC2SC(=O)NC2=O)cc1)c1ccccn1 (centres unmarked) [rosiglitazone, reference compound] |  | similarly decreased the mRNA levels | upregulated expression | significantly reduced blood glucose | showed weight gain in a certain extent | significant increase | significant increase in Oil red O staining | reduced expression of RANKL | reduced expressions | not significantly changed | reduced expressions | significantly reduced alkaline phosphatase (Alp) activity | impaired calcification of bone cells | nearly abolished |

Reference: PMC4381330, “Identification of a novel selective agonist of PPARγ with no promotion of adipogenesis and less inhibition of osteoblastogenesis” (Scientific Reports, 2015)
